Assay results from patent publication US20220304945A1, “METHODS OF TREATING METABOLIC SYNDROME RELATED CONDITIONS USING RETINOIC ACID RECEPTOR AGONISTS” (Cornell University, priority 2014, published 2022).

tested on: mouse ES cells (RARβ, Cyp26a1 transcripts); assay: RT-PCR of RA-responsive genes in WT and RARβ KO ES cells; type: cell-based; settings: WT ES cells, presence of RA vs untreated
Description: C57BL/6 RARβ heterozygous mice were provided by Dr. Pierre Chambon (Strasbourg-Cedex, France) (26). Homozygous RARβ-null mice were obtained following mating of RARβ heterozygous mice. Blastocysts were harvested on day E3.5 and individually cultured on ES cell medium as previously described (28).
Various markers for endodermal (day 5), pancreatic progenitor (day 11), endocrine progenitor (day 14) and endocrine (day 17) differentiation were analyzed by semi-quantitative RT-PCR in J1 wild-type and RARβ KO ESCs. Primers were designed around introns whenever possible. Total RNA extraction, semi-quantitative and quantitative PCR reactions were performed as previously described (18). Amplified PCR products were resolved on 1.5% agarose gels and visualized by staining with ethidium bromide. PCR bands were sequenced for verification of the correct amplicon. Quantitation of semi-quantitative gels was performed using ImageJ software (National Institutes of Health) from three experimental biological repeats.

SMILES	RARβ signal (RT-PCR)
CC1=C(/C=C/C(C)=C/C=C/C(C)=C/C(=O)O)C(C)(C)CCC1 [RA, all trans-retinoic acid]	stronger RARβ signal

same assay, conditions: WT and RARβ KO ES cells, RA-treated

SMILES	Cyp26a1 expression (RT-PCR)
CC1=C(/C=C/C(C)=C/C=C/C(C)=C/C(=O)O)C(C)(C)CCC1 [RA, all trans-retinoic acid]	observed in both WT and RARβ KO ES cells

target: T1, RARβ2 (Homo sapiens, UniProt P10826); assay: not given; parameters: expressed in transfected cells; settings: from Table 1 and Table 2 of WO2007/009083; cited from earlier work
T1 sequence (P10826 1-448 isoform P10826-2): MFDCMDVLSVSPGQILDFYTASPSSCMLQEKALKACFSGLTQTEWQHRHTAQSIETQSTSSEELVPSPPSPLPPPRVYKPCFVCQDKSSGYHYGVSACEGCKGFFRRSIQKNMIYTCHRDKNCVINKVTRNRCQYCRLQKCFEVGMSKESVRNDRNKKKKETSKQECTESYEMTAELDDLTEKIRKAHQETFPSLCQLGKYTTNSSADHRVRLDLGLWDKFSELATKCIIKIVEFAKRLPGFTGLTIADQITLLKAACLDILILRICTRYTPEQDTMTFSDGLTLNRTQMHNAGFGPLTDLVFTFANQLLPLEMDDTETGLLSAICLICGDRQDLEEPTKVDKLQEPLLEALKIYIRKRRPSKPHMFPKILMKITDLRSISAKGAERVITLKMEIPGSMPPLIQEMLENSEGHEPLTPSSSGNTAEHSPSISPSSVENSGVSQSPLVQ

SMILES	% Eff. [%]	pEC50
CCCCCCCc1ccc(-c2ccc(C(=O)NO)cc2)cc1 [Compound 37]	49	–
CCCCCCOc1ccc(-c2ccc(C(=O)O)cc2)cc1 [Compound 12]	72	–
CCCCCCCCc1ccc(-c2ccc(C(=O)O)cc2F)cc1 [Compound 38]	70	6.81
CCCCCCCCc1ccc(-c2ccc(C(=O)C(=O)O)cc2)cc1 [Compound 31]	80	–
CCCCCCCCc1ccc(-c2ccc(C(=O)O)cc2)cc1 [Compound 6]	104	–
CCCCCCCCc1ccc(-c2ccc(C(=O)Nc3ccc(C)cn3)cc2)cc1 [Compound 29]	78	–
CCCCCCCc1ccc(-c2ccc(C(=O)O)cc2F)cc1 [Compound 22]	36	–
CCCCCc1ccc(-c2ccc(C(=O)O)cc2)cc1 [Compound 4]	44	–
CCCC1CCCC(c2ccc(-c3ccc(C(=O)O)cc3)cc2)CC1 (stereo not drawn) [Compound 49]	59	–
CCCCCCCCOc1ccc(-c2ccc(C(=O)O)cc2)cc1 [Compound 32]	70	–
CCCCCCCOc1ccc(-c2ccc(C(=O)O)cc2)cc1 [Compound 24]	58	–
CCCCCCCCCc1ccc(-c2ccc(C(=O)O)cc2)cc1 [Compound 2]	126	–
CCCCCCCc1ccc(-c2ccc(C(=O)O)c(F)c2)cc1 [Compound 36]	42	–
CCCCCCCCc1ccc(-c2ccc(C(=O)O)cc2)cc1 [Compound 35]	83	–
CCCCCCCc1ccc(-c2ccc(C(=O)O)c(C)c2)cc1 [Compound 52]	45	6.41
CCCCC(CC)COc1nc(-c2ccc(C(=O)O)cc2)sc1C (stereo not drawn) [Compound 46]	54	–
CCCCCCCc1ccc(-c2ccc(C(=O)NN)cc2)cc1 [Compound 45]	78	–
CCCCCCCCCCOc1ccc(-c2ccc(C(=O)O)cc2)cc1 [Compound 20]	98	–
CCCOCCOc1nc(-c2ccc(C(=O)O)cc2)sc1C [Compound 33]	98	–
Cc1sc(-c2ccc(C(=O)O)cc2)nc1OCC(=O)NC1CCC(C)CC1 (stereo not drawn) [Compound 58]	66	–
CCCCCCCc1ccc(-c2ccc(C(=O)O)cc2)cc1 [Compound 9]	76	–
CCCCCCc1ccc(-c2ccc(C(=O)O)cc2)cc1 [Compound 16]	37	–
CCCCNC(=O)COc1nc(-c2ccc(C(=O)O)cc2)sc1C [Compound 62]	37	–

SMILES	% Eff. [%]	pEC50
CCCCCCCc1ccc(-c2ccc(C(=O)O)cc2)cc1 [Compound 10]	64	–
CCCCCCCCc1ccc(-c2ccc(C(=O)NS(C)(=O)=O)cc2)cc1 [Compound 60]	51	–
CCCCc1ccc(-c2ccc(C(=O)O)cc2)cc1 [Compound 26]	36	7.15
CCCCCCCCOc1ccc(-c2ccc(C(=O)NCCC#N)cc2)cc1 [Compound 51]	59	–
CC(C)CCCCOc1ccc(-c2ccc(C(=O)O)cc2)cc1 [Compound 25]	65	–
CCCCCCCCc1ccc(-c2ccc(C(=O)O)c(C)c2)cc1 [Compound 55]	84	–
CCCCCCNC(=O)COc1nc(-c2ccc(C(=O)O)cc2)sc1C [Compound 13]	85	–
CCCCCCCCc1ccc(-c2ccc(C(=O)O)cc2)cc1 [Compound 53]	99	–
Cc1sc(-c2ccc(C(=O)O)cc2)nc1OCC(=O)NC1CCCCCC1 [Compound 56]	105	–
Cc1sc(-c2ccc(C(=O)O)cc2)nc1OCC(=O)NC1CCCC1 [Compound 61]	39	–
CCCCCCCCc1ccc(-c2ccc(C(=O)n3cnc(NC(C)=O)n3)cc2)cc1 [Compound 15]	76	–
Cc1sc(-c2ccc(C(=O)O)cc2)nc1OCC(=O)NC(C)CCC(C)C (stereo not drawn) [Compound 57]	77	–
CCCCCCCc1ccc(-c2ccc(C(=O)NCCc3ccccn3)cc2)cc1 [Compound 59]	35	–
CCCCOCCOc1ccc(-c2ccc(C(=O)O)cc2)cc1 [Compound 18]	108	–
CCCCCCOc1cc(C)c(-c2ccc(C(=O)O)cc2)cc1C [Compound 11]	78	–
CCCCCCc1ccc(-c2ccc(C(=O)Nc3ccc(C)cn3)cc2)cc1 [Compound 63]	36	–
CCCCOCCOc1cc(C)c(-c2ccc(C(=O)O)cc2)cc1C [Compound 44]	41	–
CCCCCCCCN1CCN(c2ccc(C(=O)O)cc2)CC1 [Compound 50]	85	–
CCCCCCCCOc1ccc(-c2ccc(C(=O)NCCc3ccccn3)cc2)cc1 [Compound 54]	39	–
CCCCCCCCc1ccc(-c2ccc(C(=O)n3ccnc3)cc2)cc1 [Compound 8]	79	7.66
O=C(O)c1ccc(-c2ccc(OCCC=C(C3CC3)C3CC3)cc2)cc1 [Compound 47]	58	–
CCCCOCCOc1nc(-c2ccc(C(=O)O)cc2)sc1C [Compound 27]	95	–
